{"source": "paper PMC4564171", "about": "(PLoS ONE, 2015)", "key": {"[1]": {"test_system": "10 bp pvirB FID DNA probes", "experiment": "Fluorescence intercalator displacement (FID) assay, 10 bp probes", "assay_type": "binding, Shigella flexneri", "details": "for 10 bp pvirB 51–60 FID probe %fluorescence: ethidium bromide 7.5 μM, probe 1.5 μM", "description": "The FID protocol was based on previously published studies and was conducted in triplicate. For the assay, black, half-area, 96-well plates (Corning, Twerksbury, MA) were used. First, 70 μL of ethidium bromide in Tris Buffer (0.1 M Tris HCl, 0.1 M NaCl, pH 8.0) was added to all wells. The concentration of ethidium bromide was contingent upon the length of the DNA probe that was used. For the 60 bp pvirB FID DNA probe, the final ethidium bromide concentration used was 45 μM; whereas, for the 10 bp pvirB (51–60) FID DNA probe, the final ethidium bromide concentration used was 7.5 μM. Next, 10 μL of either pvirB FID DNA probes (10 or 60 bp) in TE/NaCl buffer (see above) or 10 μL of TE/NaCl buffer (background fluorescence control) were added to the appropriate wells of the plate. The final concentrations of the pvirB FID DNA probes were 1.5 μM. Lastly, 20 μL of test compound (either 19615 or Berenil) in 10% DMSO Tris Buffer or 20 μL of 10% DMSO Tris Buffer (100% fluorescence control) were added to the appropriate wells of the plate. […] After the addition of all reagents, the plates were protected from light and allowed to equilibrate for 30 min on an orbital shaker at room temperature. Following equilibration, fluorescence was measured […] using a Biotek Synergy H1 plate reader (Winooski, VT). The average background fluorescence was subtracted from all data generated and %fluorescence was calculated for all wells containing compound via the following formula: %fluorescence=Ftest/F100%^*100 where: Ftest = the average fluorescence value obtained for each test compound and F100% = the average fluorescence value obtained for each 100% fluorescence control."}, "[2]": {"test_system": "VirF-driven transcriptional activation", "set-up": "method as in PMID 24549153", "details": "VirF-driven β-galactosidase reporter; read-out: Shigella-Based Reporter Assay IC50; cited from earlier work"}, "[3]": {"test_system": "mammalian cells", "set-up": "method as in PMID 24549153", "details": "at the tested concentrations; cited from earlier work"}, "[4]": {"test_system": "E. coli RNA polymerase (RNAP) binding to the lac promoter (plac)", "sequence (P0A7Z4 whole entry)": "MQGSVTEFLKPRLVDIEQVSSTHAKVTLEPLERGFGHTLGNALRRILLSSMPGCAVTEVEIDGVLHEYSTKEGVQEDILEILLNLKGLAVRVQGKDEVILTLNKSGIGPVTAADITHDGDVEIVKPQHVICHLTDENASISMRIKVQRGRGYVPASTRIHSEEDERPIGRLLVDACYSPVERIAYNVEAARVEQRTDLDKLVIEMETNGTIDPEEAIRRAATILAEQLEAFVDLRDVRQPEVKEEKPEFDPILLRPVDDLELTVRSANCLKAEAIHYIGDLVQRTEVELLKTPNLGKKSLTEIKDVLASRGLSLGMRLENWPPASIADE", "sequence (P0A800 whole entry, further chain)": "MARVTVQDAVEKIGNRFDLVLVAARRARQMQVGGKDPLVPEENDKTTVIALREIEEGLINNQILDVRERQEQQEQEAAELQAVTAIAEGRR", "sequence (P0A8T7 whole entry, further chain)": "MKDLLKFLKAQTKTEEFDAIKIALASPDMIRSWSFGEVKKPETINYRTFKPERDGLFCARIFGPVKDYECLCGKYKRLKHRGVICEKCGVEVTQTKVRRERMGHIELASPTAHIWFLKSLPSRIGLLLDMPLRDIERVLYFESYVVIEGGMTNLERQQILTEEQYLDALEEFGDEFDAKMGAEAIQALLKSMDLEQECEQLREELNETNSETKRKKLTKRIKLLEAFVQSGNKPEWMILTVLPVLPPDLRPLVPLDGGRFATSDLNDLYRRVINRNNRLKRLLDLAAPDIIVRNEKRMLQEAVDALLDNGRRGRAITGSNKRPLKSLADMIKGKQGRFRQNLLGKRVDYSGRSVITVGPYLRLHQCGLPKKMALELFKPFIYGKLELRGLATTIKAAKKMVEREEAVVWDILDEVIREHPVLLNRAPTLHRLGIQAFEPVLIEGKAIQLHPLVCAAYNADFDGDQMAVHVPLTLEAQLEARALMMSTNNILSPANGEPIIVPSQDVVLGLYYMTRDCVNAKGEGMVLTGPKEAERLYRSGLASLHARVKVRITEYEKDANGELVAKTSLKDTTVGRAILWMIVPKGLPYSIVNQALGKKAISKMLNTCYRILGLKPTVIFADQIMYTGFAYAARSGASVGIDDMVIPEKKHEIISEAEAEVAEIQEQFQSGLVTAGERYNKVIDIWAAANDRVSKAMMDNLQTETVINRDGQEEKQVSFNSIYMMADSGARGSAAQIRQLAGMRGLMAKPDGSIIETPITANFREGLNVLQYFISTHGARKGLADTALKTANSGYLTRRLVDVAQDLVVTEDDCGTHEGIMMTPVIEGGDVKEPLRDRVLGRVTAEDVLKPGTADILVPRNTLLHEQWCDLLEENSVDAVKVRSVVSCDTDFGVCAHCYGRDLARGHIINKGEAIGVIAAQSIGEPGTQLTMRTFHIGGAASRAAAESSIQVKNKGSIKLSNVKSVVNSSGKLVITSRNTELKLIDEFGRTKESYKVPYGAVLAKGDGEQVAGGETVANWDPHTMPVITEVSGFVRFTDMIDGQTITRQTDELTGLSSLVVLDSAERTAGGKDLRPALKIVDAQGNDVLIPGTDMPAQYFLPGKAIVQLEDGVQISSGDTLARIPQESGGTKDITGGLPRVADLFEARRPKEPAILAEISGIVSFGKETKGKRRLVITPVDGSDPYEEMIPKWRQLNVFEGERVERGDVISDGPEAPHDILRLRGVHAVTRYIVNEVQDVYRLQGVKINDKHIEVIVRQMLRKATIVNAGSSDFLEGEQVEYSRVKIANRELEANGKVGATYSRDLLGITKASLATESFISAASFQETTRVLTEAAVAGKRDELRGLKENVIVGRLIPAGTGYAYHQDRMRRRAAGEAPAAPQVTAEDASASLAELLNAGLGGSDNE", "sequence (P00579 whole entry, further chain)": "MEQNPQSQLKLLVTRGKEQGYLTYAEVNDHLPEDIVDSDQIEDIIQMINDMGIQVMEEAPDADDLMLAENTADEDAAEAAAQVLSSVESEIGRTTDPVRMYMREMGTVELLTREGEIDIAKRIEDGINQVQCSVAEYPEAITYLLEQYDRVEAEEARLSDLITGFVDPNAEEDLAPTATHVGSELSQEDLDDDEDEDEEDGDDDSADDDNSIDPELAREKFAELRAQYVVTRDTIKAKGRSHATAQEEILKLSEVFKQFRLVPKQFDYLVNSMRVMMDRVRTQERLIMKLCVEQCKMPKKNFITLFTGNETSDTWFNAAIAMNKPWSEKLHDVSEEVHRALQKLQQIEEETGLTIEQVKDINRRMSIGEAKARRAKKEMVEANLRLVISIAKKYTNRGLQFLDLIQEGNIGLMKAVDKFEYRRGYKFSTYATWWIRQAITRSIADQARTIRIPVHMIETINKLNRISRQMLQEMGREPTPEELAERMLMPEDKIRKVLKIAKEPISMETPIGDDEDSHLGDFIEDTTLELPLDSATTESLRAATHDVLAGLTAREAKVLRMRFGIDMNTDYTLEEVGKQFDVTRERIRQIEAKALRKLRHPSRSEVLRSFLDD", "sequence (P0A8V2 whole entry, further chain)": "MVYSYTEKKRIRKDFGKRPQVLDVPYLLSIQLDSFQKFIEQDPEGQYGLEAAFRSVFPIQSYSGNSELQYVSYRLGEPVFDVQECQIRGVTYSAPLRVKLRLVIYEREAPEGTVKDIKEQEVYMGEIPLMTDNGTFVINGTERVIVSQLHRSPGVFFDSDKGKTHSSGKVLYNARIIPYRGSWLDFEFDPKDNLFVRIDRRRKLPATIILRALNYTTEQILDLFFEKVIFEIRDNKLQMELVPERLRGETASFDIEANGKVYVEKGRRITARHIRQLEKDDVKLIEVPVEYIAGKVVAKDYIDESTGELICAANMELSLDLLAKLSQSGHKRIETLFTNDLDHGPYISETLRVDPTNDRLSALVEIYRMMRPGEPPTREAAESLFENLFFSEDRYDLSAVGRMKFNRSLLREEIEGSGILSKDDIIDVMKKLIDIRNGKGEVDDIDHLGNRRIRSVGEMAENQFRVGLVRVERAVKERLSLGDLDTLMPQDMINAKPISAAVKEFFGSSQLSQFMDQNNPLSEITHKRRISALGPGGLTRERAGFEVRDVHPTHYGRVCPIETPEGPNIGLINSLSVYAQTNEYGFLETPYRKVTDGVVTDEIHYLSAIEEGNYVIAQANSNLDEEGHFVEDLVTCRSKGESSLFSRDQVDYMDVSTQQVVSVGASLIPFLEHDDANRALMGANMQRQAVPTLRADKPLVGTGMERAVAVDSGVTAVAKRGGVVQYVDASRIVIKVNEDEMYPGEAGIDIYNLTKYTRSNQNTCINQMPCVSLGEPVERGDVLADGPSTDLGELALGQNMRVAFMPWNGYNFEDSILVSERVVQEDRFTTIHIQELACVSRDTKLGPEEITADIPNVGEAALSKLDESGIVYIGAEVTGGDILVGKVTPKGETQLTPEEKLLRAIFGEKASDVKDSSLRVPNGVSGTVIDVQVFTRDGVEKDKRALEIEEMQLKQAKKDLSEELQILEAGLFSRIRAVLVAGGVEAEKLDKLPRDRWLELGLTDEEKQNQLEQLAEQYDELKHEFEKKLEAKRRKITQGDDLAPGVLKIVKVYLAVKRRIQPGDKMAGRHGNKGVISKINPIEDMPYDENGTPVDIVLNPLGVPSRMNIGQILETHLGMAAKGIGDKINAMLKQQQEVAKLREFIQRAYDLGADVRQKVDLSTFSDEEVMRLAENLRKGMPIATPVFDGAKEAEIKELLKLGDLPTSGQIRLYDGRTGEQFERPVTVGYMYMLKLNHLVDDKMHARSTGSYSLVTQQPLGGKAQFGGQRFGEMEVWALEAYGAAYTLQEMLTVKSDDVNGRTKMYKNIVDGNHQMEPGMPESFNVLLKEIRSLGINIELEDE", "experiment": "Control EMSA of E. coli RNA polymerase binding to the lac promoter", "details": "compound 100 μM; RNAP 2.7 μM; 5'Cy5-plac probe 0.25 μM", "description": "[picture] Figure C: EMSA depicting E. coli RNA Polymerase (RNAP) Binding to the lac Promoter (plac) in the Presence of 19615. […] For the EMSA a hybrid 2% acrylamide, 1% agarose gel was used which was made with and ran in a 1X TGE buffer (25 mM Tris base, 190 mM glycine, 1 mM EDTA, pH 8.3). The sequence of the 5’Cy5-plac DNA probe is as follows: 5’-gtgccctggtctgg[…]-3’ (lowercase text represents LUEGO sequence, uppercase text represents lac promoter sequence)."}, "[5]": {"test_system": "spread of an active S. flexneri infection", "details": "cited from earlier work"}, "[6]": {"target": "T1, MalE-VirF binding to the 5'Cy5-pvirB DNA probe (Shigella flexneri, UniProt P0A2T1)", "T1 construct": "pMALvirF was constructed by cloning the virF gene into the vector, pMAL-c2x; made in house; host or cells: Shigella flexneri BS103 (pBAD202-MALvirF); initial preparations in E. coli KS1000 (pMALvirF)", "T1 sequence (P0A2T1 whole entry, looked up)": "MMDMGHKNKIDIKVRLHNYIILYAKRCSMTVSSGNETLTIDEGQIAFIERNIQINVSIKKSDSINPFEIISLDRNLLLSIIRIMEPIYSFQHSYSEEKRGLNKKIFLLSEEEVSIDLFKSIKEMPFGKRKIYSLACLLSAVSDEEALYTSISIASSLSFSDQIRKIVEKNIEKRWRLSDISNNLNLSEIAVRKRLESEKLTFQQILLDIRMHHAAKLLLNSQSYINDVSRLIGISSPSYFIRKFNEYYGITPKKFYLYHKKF", "experiment": "Electrophoretic mobility shift assay (EMSA) of MalE-VirF binding to pvirB DNA probe", "details": "compound 100 μM; MalE-VirF 1 μM; probe 0.25 μM", "description": "Reactions for the EMSAs were incubated in a 37°C water bath for 15 minutes. Reactions (15 μL total volume) were composed of 6 μL pvirB EMSA DNA probe (0.25 μM), 6 μL of either MalE-VirF (1.0 μM) or native gel loading buffer (Tris-HCl 0.3 M, 50% glycerol, 0.05% bromophenol blue, pH 7.0), 1 μL of salmon sperm DNA (0.7 mg/mL, Invitrogen), 0.5 μL BSA (0.07 mg/mL), and 1.5 μL of either DMSO or compound (100 μM). A 6% native polyacrylamide gel (29:1 acrylamide to bis-acrylamide ratio) was made with 0.25X TBE buffer (22 mM Tris Base, 22 mM boric acid, 0.5 mM EDTA, pH 9.5) for the EMSA. The gel was electrophoresed for 1 hour at 150 V in 0.25X TBE buffer at 4°C before samples were loaded. After the reaction solutions (12 μL) were loaded onto the gel, the gel was electrophoresed for an additional hour at 150 V and 4°C. The gel was then visualized using FluorChem M gel imager (Protein Simple, Santa Clara, CA) with a 607 nm excitation wavelength and a 710 nm emission filter."}}, "note": "Where “and” joins values, the source holds several entries; their conditions need not be identical. Identical values can stand only once. Entries after “also recorded” stand apart in the source; their conditions may differ. Like-named read-outs stand apart in the source and are kept apart here.", "data": [{"smiles": "CN(C)CCOc1nc(-c2ccccc2)nc2c1oc1ccccc12", "note": "[compound 19615]", "values": [{"measurement": "%fluorescence, 10 bp fragment pvirB 21-30", "setting": "[1]; compound 2 μM, preliminary FID screen, 5'-AATAAAGATA-3'", "value": "92% ± 1%"}, {"measurement": "%fluorescence, 10 bp fragment pvirB 31-40", "setting": "[1]; compound 2 μM, preliminary FID screen, 5'-AATTGCATCA-3'", "value": "94% ± 2%"}, {"measurement": "%fluorescence, 10 bp fragment pvirB 1-10", "setting": "[1]; compound 2 μM, preliminary FID screen, 5'-AGAATATTAT-3'", "value": "93% ± 6%"}, {"measurement": "%fluorescence, 10 bp fragment pvirB 41-50", "setting": "[1]; compound 2 μM, preliminary FID screen, 5'-ATCCAGCTAT-3'", "value": "94% ± 1%"}, {"measurement": "%fluorescence, 10 bp fragment pvirB 51-60", "setting": "[1]; compound 2 μM, preliminary FID screen, 5'-TAAAATAGTA-3'", "value": "92% and 92% ± 0%"}, {"measurement": "%fluorescence, 10 bp fragment pvirB 11-20", "setting": "[1]; compound 2 μM, preliminary FID screen, 5'-TCTTTTATCC-3'", "value": "95% ± 3%"}, {"measurement": "10 bp pvirB 51–60 FID probe %fluorescence", "setting": "[1]; compound 12.5 μM", "value": "97% ± 2%"}, {"measurement": "10 bp pvirB 51–60 FID probe %fluorescence", "setting": "[1]; compound 25 μM", "value": "97% ± 3%"}, {"measurement": "10 bp pvirB 51–60 FID probe %fluorescence", "setting": "[1]; compound 50 μM", "value": "97% ± 2%"}, {"measurement": "10 bp pvirB 51–60 FID probe %fluorescence", "setting": "[1]; compound 100 μM", "value": "95% ± 1%"}, {"measurement": "IC50", "setting": "[2]", "value": 14, "unit": "µM"}, {"measurement": "Toxicity to mammalian cells", "setting": "[3]", "value": "not toxic"}, {"measurement": "Effect on RNAP binding to the lac promoter (EMSA)", "setting": "[4]", "value": "no effect on RNAP binding"}, {"measurement": "Inhibition of the spread of an active S. flexneri infection", "setting": "[5]; at 6.25 μM", "value": 75, "unit": "%"}, {"measurement": "Inhibition of the spread of an active S. flexneri infection", "setting": "[5]; at concentrations at or below their IC50s in the reporter assay", "value": "approximately 75%"}, {"measurement": "Plaque Efficiency Assay IC75", "setting": "[5]; ref Emanuele et al. J. Antibiotics 67:379–386 (2014)", "value": 6.25, "unit": "µM"}, {"measurement": "Effect on MalE-VirF binding to the pvirB DNA probe (EMSA)", "setting": "[6]", "value": "appeared to inhibit MalE-VirF binding; also recorded: dramatically reduced binding"}]}]}
